Data published in US20250222146A1, “Radiopharmaceuticals Targeting Somatostatin Receptor 2 and Uses Thereof” (RayzeBio, Inc., priority 2023, published 2025).
Numbered stars: 1 amine (or outer) side, 2 acyl side, 3 side chain; on linkers, the order of the positions; unused ones are H or OH. Square brackets hold non-standard residues; d marks the D form. Peptide text beside a SMILES is read from it. * marks the point of attachment. DOTA(Lu)NH(CH2)6NHCOCH2 = O=C(CN1CCN2CCN3CCN(CC1)CC(=O)[O][Lu]([O]C(=O)C2)[O]C(=O)C3)NCCCCCCNC(=O)C*; X6 = O=C(CN1CCN2CCN3CCN(CC1)CC(=O)[O][Lu]([O]C(=O)C2)[O]C(=O)C3)NCCOCCOCCOCCNC(=O)C*; X17 = O=C(CN1CCN2CCN3CCN(CC1)CC(=O)[O][Lu]([O]C(=O)C2)[O]C(=O)C3)NCCNC(=O)C*; DOTA(Lu) = O=C1CN2CCN3CCN(CC(=O)*)CCN(CC2)CC(=O)[O][Lu]([O]1)[O]C(=O)C3; Ala(piperidin-4-yl) = O=C([C@H](CC1CCN([*:3])CC1)N[*:1])[*:2]; dTrp(βS-Me) = C[C@@H](c1c[nH]c2ccccc12)[C@@H](N)C(=O)O; βMeTrp(2S,3R) = C[C@H](c1c[nH]c2ccccc12)[C@H](N)C(=O)O; dTrp(4-Me) = Cc1cccc2[nH]cc(C[C@@H](N)C(=O)O)c12; X19 = O=C([C@H](Cc1c[nH]c2ccncc12)N[*:1])[*:2]; Phe(4-CH2NH2) = NCc1ccc(C[C@H](N)C(=O)O)cc1; Dip = N[C@H](C(=O)O)C(c1ccccc1)c1ccccc1; Lys(iPr) = CC(C)NCCCC[C@H](N)C(=O)O; mTyr = N[C@@H](Cc1cccc(O)c1)C(=O)O; NMehCys = CN[C@@H](CCS)C(=O)O; NMeK = CN[C@@H](CCCCN)C(=O)O; Ethyl(2-NH2) = NCC*

target: SSTR2 (Homo sapiens, UniProt P30874); test: SSTR binding affinity by radioligand binding competition assay ([125I]-Tyr11-Somatostatin, membrane extracts); details: SSTR2 Ki, radioligand competition, [125I]-Tyr11-Somatostatin 0.1 nM, membrane extracts; Ki from IC50 by Cheng Prusoff
Sequence (P30874 whole entry): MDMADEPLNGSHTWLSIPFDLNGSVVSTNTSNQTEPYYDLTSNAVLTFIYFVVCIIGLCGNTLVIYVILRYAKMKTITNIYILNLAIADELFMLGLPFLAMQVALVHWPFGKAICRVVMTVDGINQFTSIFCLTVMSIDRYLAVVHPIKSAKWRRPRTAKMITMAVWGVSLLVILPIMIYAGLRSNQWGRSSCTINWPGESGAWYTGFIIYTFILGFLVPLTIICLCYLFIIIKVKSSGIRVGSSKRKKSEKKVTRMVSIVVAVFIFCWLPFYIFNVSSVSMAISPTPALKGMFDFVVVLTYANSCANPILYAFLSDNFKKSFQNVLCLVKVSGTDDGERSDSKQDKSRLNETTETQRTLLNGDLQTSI

Row | Structure (SMILES) | Ki [nM]
1 | C[C@@H](O)[C@@H]1NC(=O)[C@@H](CCCCN)NC(=O)[C@@H](Cc2c[nH]c3ccccc23)NC(=O)[C@H](Cc2ccc(O)cc2)NC(=O)[C@H](CCSCC(=O)NCCCCCCNC(=O)CN2CCN3CCN4CCN(CC2)CC(=O)[O][Lu]([O]C(=O)C3)[O]C(=O)C4)N(C)C(=O)[C@H](Cc2ccccc2)NC1=O [RB-0005827] | 10 to 33.3
2 | C[C@@H](O)[C@@H]1NC(=O)[C@H](CCCCN)NC(=O)[C@H](Cc2c[nH]c3ccccc23)NC(=O)[C@H](Cc2ccc(O)cc2)NC(=O)[C@H](CCSCC(=O)NCCCCCCNC(=O)CN2CCN3CCN4CCN(CC2)CC(=O)[O][Lu]([O]C(=O)C3)[O]C(=O)C4)N(C)C(=O)[C@H](Cc2ccccc2)NC1=O [RB-0005858] | 1 to 3.33
3 | C[C@@H](O)[C@@H]1NC(=O)[C@H](CCCCN)NC(=O)[C@@H](Cc2c[nH]c3ccccc23)NC(=O)[C@H](Cc2ccc(O)cc2)NC(=O)[C@@H](CCSCC(=O)NCCCCCCNC(=O)CN2CCN3CCN4CCN(CC2)CC(=O)[O][Lu]([O]C(=O)C3)[O]C(=O)C4)N(C)C(=O)[C@H](Cc2ccccc2)NC1=O [RB-0005866] | 1 to 3.33
4 | C[C@@H](O)[C@@H]1NC(=O)[C@H](CCCCN)NC(=O)[C@H](Cc2c[nH]c3ccccc23)NC(=O)[C@H](Cc2ccc(O)cc2)NC(=O)[C@H](CCSCC(=O)NCCCCCCNC(=O)CN2CCN3CCN4CCN(CC2)CC(=O)[O][Lu]([O]C(=O)C3)[O]C(=O)C4)N(C)C(=O)[C@H](Cc2ccccc2)NC1=O [RB-0005905] | < 1
5 | C[C@@H](O)[C@@H]1NC(=O)[C@H](CCCCN)NC(=O)[C@H](Cc2c[nH]c3ccccc23)NC(=O)[C@H](Cc2ccc(O)cc2)NC(=O)[C@H](CCSCC(=O)NCCCCCCNC(=O)CN2CCN3CCN4CCN(CC2)CC(=O)[O][Lu]([O]C(=O)C3)[O]C(=O)C4)N(C)C(=O)[C@H](Cc2ccccc2)NC1=O [RB-0005907] | 3.33 to 10

same assay, conditions: radioligand competition, [125I]-Tyr11-Somatostatin 0.1 nM, membrane extracts; Ki from IC50 by Cheng Prusoff; read-out: SSTR2 Ki

Row | Structure (SMILES) | Ki [nM]
6 | C[C@@H]1NC(=O)[C@H]([C@@H](C)O)NC(=O)[C@H](CC2CCNCC2)NC(=O)[C@@H](Cc2c[nH]c3ccccc23)NC(=O)[C@H](C(c2ccccc2)c2ccccc2)NC(=O)[C@H](CCSCC(=O)NCCCCCCNC(=O)CN2CCN3CCN4CCN(CC2)CC(=O)[O][Lu]([O]C(=O)C3)[O]C(=O)C4)N(C)C1=O [RB-0005809] (cyclo(A[NMehCys](DOTA(Lu)NH(CH2)6NHCOCH2)[Dip][dW][Ala(piperidin-4-yl)]T)) | 1 to 3.33
7 | C[C@@H](O)[C@@H]1NC(=O)[C@H](CCCCN)NC(=O)[C@@H](Cc2c[nH]c3ccccc23)NC(=O)[C@H](Cc2ccc(O)cc2)NC(=O)[C@H](C2CCN(C(=O)CCCCCNC(=O)CN3CCN4CCN5CCN(CC3)CC(=O)[O][Lu]([O]C(=O)C4)[O]C(=O)C5)CC2)N(C)C(=O)[C@H](Cc2ccccc2)NC1=O [RB-0005852] | 33.3 to 100
8 | C[C@@H](O)[C@@H]1NC(=O)[C@H](CCCCN)NC(=O)[C@@H](Cc2c[nH]c3ccccc23)NC(=O)[C@H](Cc2ccc(O)cc2)NC(=O)[C@H](CC2CCN(C(=O)CCCCCNC(=O)CN3CCN4CCN5CCN(CC3)CC(=O)[O][Lu]([O]C(=O)C4)[O]C(=O)C5)CC2)N(C)C(=O)[C@H](Cc2ccccc2)NC1=O [RB-0005854] | 10 to 33.3
9 | C[C@@H](O)[C@@H]1NC(=O)[C@H](CCCCN)NC(=O)[C@@H](Cc2c[nH]c3ccccc23)NC(=O)[C@H](Cc2ccc(O)cc2)NC(=O)[C@H](CCSCC(=O)NCCCCCCNC(=O)CN2CCN3CCN4CCN(CC2)CC(=O)[O][Lu]([O]C(=O)C3)[O]C(=O)C4)N(C)C(=O)[C@@H]2CCCN2C1=O [RB-0005864] (cyclo(KTP[NMehCys](DOTA(Lu)NH(CH2)6NHCOCH2)Y[dW])) | 1 to 3.33
10 | C[C@@H](O)[C@@H]1NC(=O)[C@H](CCCCN)NC(=O)[C@@H](Cc2c[nH]c3ccccc23)NC(=O)[C@H](Cc2ccc(O)cc2)NC(=O)[C@H](CC(=O)NCCCCCCNC(=O)CN2CCN3CCN4CCN(CC2)CC(=O)[O][Lu]([O]C(=O)C3)[O]C(=O)C4)N(C)C(=O)[C@H](Cc2ccccc2)NC1=O [RB-0005895] | 3.33 to 10
11 | C[C@@H](O)[C@@H]1NC(=O)[C@H](COCCN)NC(=O)[C@@H](Cc2c[nH]c3ccccc23)NC(=O)[C@H](Cc2ccc(O)cc2)NC(=O)[C@H](CCSCC(=O)NCCCCCCNC(=O)CN2CCN3CCN4CCN(CC2)CC(=O)[O][Lu]([O]C(=O)C3)[O]C(=O)C4)N(C)C(=O)[C@H](Cc2ccccc2)NC1=O [RB-0005899] (cyclo(F[NMehCys](DOTA(Lu)NH(CH2)6NHCOCH2)Y[dW]S(Ethyl(2-NH2))T)) | < 1
12 | C[C@@H](O)[C@@H]1NC(=O)[C@H](CCCCN)NC(=O)[C@H](Cc2c[nH]c3ccncc23)NC(=O)[C@H](Cc2ccc(O)cc2)NC(=O)[C@H](CCSCC(=O)NCCCCCCNC(=O)CN2CCN3CCN4CCN(CC2)CC(=O)[O][Lu]([O]C(=O)C3)[O]C(=O)C4)N(C)C(=O)[C@H](Cc2ccccc2)NC1=O [RB-0005903] (cyclo(F[NMehCys](DOTA(Lu)NH(CH2)6NHCOCH2)Y[X19]KT)) | < 1
13 | C[C@@H](O)[C@@H]1NC(=O)[C@H](CC2CCNCC2)NC(=O)[C@@H](Cc2c[nH]c3ccccc23)NC(=O)[C@H](Cc2ccc(O)cc2)NC(=O)[C@H](CCCCNC(=O)CN2CCN3CCN4CCN(CC2)CC(=O)[O][Lu]([O]C(=O)C3)[O]C(=O)C4)N(C)C(=O)[C@H](Cc2ccc(O)cc2)NC1=O [RB-0005983] (cyclo([NMeK](DOTA(Lu))Y[dW][Ala(piperidin-4-yl)]TY)) | 3.33 to 10
14 | C[C@@H](O)[C@@H]1NC(=O)[C@H](CC2CCNCC2)NC(=O)[C@@H](Cc2c[nH]c3ccccc23)NC(=O)[C@H](Cc2ccc(O)cc2)NC(=O)[C@H](CCCCNC(=O)CN2CCN3CCN4CCN(CC2)CC(=O)[O][Lu]([O]C(=O)C3)[O]C(=O)C4)N(C)C(=O)[C@H](Cc2cccc(O)c2)NC1=O [RB-0005984] (cyclo([NMeK](DOTA(Lu))Y[dW][Ala(piperidin-4-yl)]T[mTyr])) | 1 to 3.33
15 | C[C@@H](O)[C@@H]1NC(=O)[C@H](CC2CCNCC2)NC(=O)[C@@H]([C@@H](C)c2c[nH]c3ccccc23)NC(=O)[C@H](Cc2ccc(O)cc2)NC(=O)[C@H](CCCCNC(=O)CN2CCN3CCN4CCN(CC2)CC(=O)[O][Lu]([O]C(=O)C3)[O]C(=O)C4)N(C)C(=O)[C@H](Cc2cccc(O)c2)NC1=O [RB-0005985] (cyclo([NMeK](DOTA(Lu))Y[dTrp(βS-Me)][Ala(piperidin-4-yl)]T[mTyr])) | < 1
16 | C[C@@H](O)[C@@H]1NC(=O)[C@H](CC2CCNCC2)NC(=O)[C@@H]([C@@H](C)c2c[nH]c3ccccc23)NC(=O)[C@H](Cc2ccc(O)cc2)NC(=O)[C@H](CCSCC(=O)NCCNC(=O)CN2CCN3CCN4CCN(CC2)CC(=O)[O][Lu]([O]C(=O)C3)[O]C(=O)C4)N(C)C(=O)[C@H](Cc2ccccc2)NC1=O [RB-0005990] (cyclo(F[NMehCys](X17)Y[dTrp(βS-Me)][Ala(piperidin-4-yl)]T)) | < 1
17 | C[C@@H](O)[C@@H]1NC(=O)[C@H](CC2CCNCC2)NC(=O)[C@H](Cc2c[nH]c3ccccc23)NC(=O)[C@H](Cc2ccc(O)cc2)NC(=O)[C@H](CCSCC(=O)NCCOCCOCCOCCNC(=O)CN2CCN3CCN4CCN(CC2)CC(=O)[O][Lu]([O]C(=O)C3)[O]C(=O)C4)N(C)C(=O)[C@H](Cc2ccccc2)NC1=O [RB-0005992] (cyclo(F[NMehCys](X6)YW[Ala(piperidin-4-yl)]T)) | 3.33 to 10
18 | C[C@@H](O)[C@@H]1NC(=O)[C@H](CC2CCNCC2)NC(=O)[C@@H]([C@@H](C)c2c[nH]c3ccccc23)NC(=O)[C@H](Cc2ccc(O)cc2)NC(=O)[C@H](CCSCC(=O)NCCOCCOCCOCCNC(=O)CN2CCN3CCN4CCN(CC2)CC(=O)[O][Lu]([O]C(=O)C3)[O]C(=O)C4)N(C)C(=O)[C@H](Cc2ccccc2)NC1=O [RB-0005994] (cyclo(F[NMehCys](X6)Y[dTrp(βS-Me)][Ala(piperidin-4-yl)]T)) | < 1
19 | C[C@@H](O)[C@@H]1NC(=O)[C@H](Cc2ccc(CN)cc2)NC(=O)[C@@H]([C@@H](C)c2c[nH]c3ccccc23)NC(=O)[C@H](Cc2ccc(O)cc2)NC(=O)[C@H](CCSCC(=O)NCCCCCCNC(=O)CN2CCN3CCN4CCN(CC2)CC(=O)[O][Lu]([O]C(=O)C3)[O]C(=O)C4)N(C)C(=O)[C@H](Cc2ccccc2)NC1=O [RB-0006009] (cyclo(F[NMehCys](DOTA(Lu)NH(CH2)6NHCOCH2)Y[dTrp(βS-Me)][Phe(4-CH2NH2)]T)) | 1 to 3.33
20 | CC(C)NCCCC[C@@H]1NC(=O)[C@@H]([C@@H](C)c2c[nH]c3ccccc23)NC(=O)[C@H](Cc2ccc(O)cc2)NC(=O)[C@H](CCSCC(=O)NCCCCCCNC(=O)CN2CCN3CCN4CCN(CC2)CC(=O)[O][Lu]([O]C(=O)C3)[O]C(=O)C4)N(C)C(=O)[C@H](Cc2ccccc2)NC(=O)[C@H]([C@@H](C)O)NC1=O [RB-0006011] (cyclo(F[NMehCys](DOTA(Lu)NH(CH2)6NHCOCH2)Y[dTrp(βS-Me)][Lys(iPr)]T)) | 1 to 3.33
21 | C[C@H](c1c[nH]c2ccccc12)[C@@H]1NC(=O)[C@H](Cc2ccc(O)cc2)NC(=O)[C@H](CCSCC(=O)NCCCCCCNC(=O)CN2CCN3CCN4CCN(CC2)CC(=O)[O][Lu]([O]C(=O)C3)[O]C(=O)C4)N(C)C(=O)[C@H](Cc2ccccc2)NC(=O)[C@H]([C@@H](C)O)NC(=O)[C@H](CCCCN)NC1=O [RB-0006019] (cyclo(F[NMehCys](DOTA(Lu)NH(CH2)6NHCOCH2)Y[βMeTrp(2S,3R)]KT)) | < 1
22 | C[C@H](c1c[nH]c2ccccc12)[C@@H]1NC(=O)[C@H](Cc2ccc(O)cc2)NC(=O)[C@H](CCCCNC(=O)CN2CCN3CCN4CCN(CC2)CC(=O)[O][Lu]([O]C(=O)C3)[O]C(=O)C4)N(C)C(=O)[C@H](Cc2ccccc2)NC(=O)[C@H]([C@@H](C)O)NC(=O)[C@H](CC2CCNCC2)NC1=O [RB-0006069] (cyclo(F[NMeK](DOTA(Lu))Y[βMeTrp(2S,3R)][Ala(piperidin-4-yl)]T)) | 3.33 to 10
23 | Cc1cccc2[nH]cc(C[C@H]3NC(=O)[C@H](Cc4ccc(O)cc4)NC(=O)[C@H](CCSCC(=O)NCCCCCCNC(=O)CN4CCN5CCN6CCN(CC4)CC(=O)[O][Lu]([O]C(=O)C5)[O]C(=O)C6)N(C)C(=O)[C@H](Cc4ccccc4)NC(=O)[C@H]([C@@H](C)O)NC(=O)[C@H](CC4CCNCC4)NC3=O)c12 [RB-0006073] (cyclo(F[NMehCys](DOTA(Lu)NH(CH2)6NHCOCH2)Y[dTrp(4-Me)][Ala(piperidin-4-yl)]T)) | 3.33 to 10
